# Laboratory results from ChEMBL document CHEMBL4043067, “Synthesis and cytotoxic activities of goniothalamins and derivatives” (Bioorg Med Chem, 2017).
# Key:
# [1] = tested on: A549; assay: Antiproliferative activity against human A549 cells after 48 hrs by CellTiter-Glo luminescent cell viability assay; type: functional, cell-based; details: A549, 48 h
# [2] = tested on: MCF7; assay: Antiproliferative activity against human MCF7 cells after 48 hrs by CellTiter-Glo luminescent cell viability assay; type: functional, cell-based; details: MCF7, 48 h
# [3] = tested on: HBL-100; assay: Antiproliferative activity against human HBL100 cells after 48 hrs by CellTiter-Glo luminescent cell viability assay; type: functional, cell-based; details: HBL-100, 48 h
# [4] = tested on: Saccharomyces cerevisiae; assay: Cytotoxicity against Saccharomyces cerevisiae YRE1001 up to 100 ug/ml after 48 hrs by liquid drug assay
# [5] = tested on: Saccharomyces cerevisiae; assay: Inhibition of Pdr5 ATPase activity in Saccharomyces cerevisiae YRE1001 plasma membranes assessed as residual activity at 500 ug/ml after 20 mins in presence of ATP by colorimetric assay relative to control
# [6] = tested on: Saccharomyces cerevisiae; assay: Inhibition of Pdr5 ATPase activity in Saccharomyces cerevisiae YRE1001 plasma membranes assessed as residual activity at 50 ug/ml after 20 mins in presence of ATP by colorimetric assay relative to control
# [7] = tested on: Saccharomyces cerevisiae; assay: Inhibition of Pdr5 ATPase activity in Saccharomyces cerevisiae YRE1001 plasma membranes assessed as residual activity at 5 ug/ml after 20 mins in presence of ATP by colorimetric assay relative to control
# [8] = tested on: Saccharomyces cerevisiae; assay: Inhibition of Pdr5 in Saccharomyces cerevisiae YRE1001 plasma membranes assessed as reduction in rhodamine 6G transport by measuring relative fluorescence intensity at 500 ug/ml preincubated with enzyme followed by ATP addition measured for 20 mins by fluorescence assay relative to control; parameters: scale not given: the % may be the effect or the level left
# [9] = tested on: Saccharomyces cerevisiae; assay: Inhibition of Pdr5 in Saccharomyces cerevisiae YRE1001 plasma membranes assessed as reduction in rhodamine 6G transport by measuring relative fluorescence intensity at 50 ug/ml preincubated with enzyme followed by ATP addition measured for 20 mins by fluorescence assay relative to control; parameters: scale not given: the % may be the effect or the level left
# [10] = tested on: Saccharomyces cerevisiae; assay: Inhibition of Pdr5 in Saccharomyces cerevisiae YRE1001 plasma membranes assessed as reduction in rhodamine 6G transport by measuring relative fluorescence intensity at 5 ug/ml preincubated with enzyme followed by ATP addition measured for 20 mins by fluorescence assay relative to control; parameters: scale not given: the % may be the effect or the level left
# [11] = tested on: Saccharomyces cerevisiae; assay: Inhibition of Pdr5 ATPase activity in Saccharomyces cerevisiae YRE1001 plasma membranes assessed as residual activity at 250 ug/ml after 20 mins in presence of ATP by colorimetric assay relative to control
# [12] = tested on: Saccharomyces cerevisiae; assay: Inhibition of Pdr5 ATPase activity in Saccharomyces cerevisiae YRE1001 plasma membranes assessed as residual activity at 125 ug/ml after 20 mins in presence of ATP by colorimetric assay relative to control
# [13] = tested on: Saccharomyces cerevisiae; assay: Inhibition of Pdr5 ATPase activity in Saccharomyces cerevisiae YRE1001 plasma membranes assessed as residual activity at 13 ug/ml after 20 mins in presence of ATP by colorimetric assay relative to control
# [14] = tested on: Saccharomyces cerevisiae; assay: Inhibition of Pdr5 in Saccharomyces cerevisiae YRE1001 plasma membranes assessed as reduction in rhodamine 6G transport by measuring relative fluorescence intensity at 125 ug/ml preincubated with enzyme followed by ATP addition measured for 20 mins by fluorescence assay relative to control; parameters: scale not given: the % may be the effect or the level left
# [15] = tested on: Saccharomyces cerevisiae; assay: Inhibition of Pdr5 in Saccharomyces cerevisiae YRE1001 plasma membranes assessed as reduction in rhodamine 6G transport by measuring relative fluorescence intensity at 13 ug/ml preincubated with enzyme followed by ATP addition measured for 20 mins by fluorescence assay relative to control; parameters: scale not given: the % may be the effect or the level left
SMILES,IC50 [1] [µM],IC50 [2] [µM],IC50 [3] [µM],Activity [4],Activity [5] [%],Activity [6] [%],Activity [7] [%],Activity [8] [%],Activity [9] [%],Activity [10] [%],Activity [11] [%],Activity [12] [%],Activity [13] [%],Activity [14] [%],Activity [15] [%]
COc1ccc(/C=C/[C@@H]2CC=CC(=O)O2)cc1,> 100,88.7,> 100,Toxic,–,–,–,–,–,–,–,–,–,–,–
O=C1C=CC[C@H]([C@H]2C[C@@H]2c2ccccc2)O1,11.6,48.2,14.4,Toxic,–,–,–,–,–,–,–,–,–,–,–
O=C1C=CC[C@@H](/C=C/C2CCCCC2)O1,68.6,> 100,48.2,Toxic,53,74.7,88,0,37,86,–,–,–,–,–
O=C1C=CC[C@H]([C@@H]2C[C@H]2c2ccccc2)O1,62.8,> 100,43.4,Toxic,–,–,–,–,–,–,–,–,–,–,–
O=C1CCC[C@H]([C@@H]2C[C@H]2c2ccccc2)O1,> 100,> 100,> 100,Toxic,–,–,–,–,–,–,–,–,–,–,–
O=C1CCC[C@@H]([C@H]2C[C@@H]2c2ccccc2)O1,> 100,> 100,> 100,Toxic,–,–,–,–,–,–,–,–,–,–,–
O=C1C=CCC(/C=C/c2ccccc2)O1 (racemic),34.7,> 100,22.4,Toxic,–,–,–,–,–,–,–,–,–,–,–
C[C@H](Cc1ccccc1)[C@H]1CCCC(=O)O1,> 100,> 100,> 100,Toxic,–,–,–,–,–,–,–,–,–,–,–
O=C1C=CC[C@H](/C=C/c2ccccc2)O1 [GONIOTHALAMIN],5.7,55.5,20.9,Toxic,24.3,30,71.7,-2,10,60,–,–,–,–,–
O=C1C=CC[C@H](/C=C/c2ccc([N+](=O)[O-])cc2)O1,15.4,28.8,6.7,Toxic,–,–,–,–,–,–,50,51,79.3,21,54
C[C@@H](Cc1ccccc1)[C@H]1CCCC(=O)O1,> 100,> 100,> 100,Toxic,–,–,–,–,–,–,–,–,–,–,–
O=C1CCC[C@H]([C@H]2C[C@@H]2c2ccccc2)O1,> 100,> 100,> 100,Toxic,–,–,–,–,–,–,–,–,–,–,–
O=C1C=CC[C@@H](/C=C/c2ccccc2)O1,70.3,> 100,> 100,Toxic,–,–,–,–,–,–,–,–,–,–,–
O=C1C=CC[C@@H]([C@H]2C[C@@H]2c2ccccc2)O1,15.2,68.3,34.9,Toxic,–,–,–,–,–,–,–,–,–,–,–
O=C1C=CC[C@@H](/C=C/c2ccc(F)cc2)O1,> 100,> 100,> 100,Toxic,26.3,40.7,71,10,75,99,–,–,–,–,–
O=C1C=CC[C@H](/C=C/c2ccc(F)cc2)O1,10.2,76.2,14.1,Toxic,–,–,–,–,–,–,–,–,–,–,–
O=C1C=CC[C@@H](/C=C/c2ccc([N+](=O)[O-])cc2)O1,> 100,> 100,> 100,Toxic,–,–,–,–,–,–,–,–,–,–,–
COc1ccc(/C=C/[C@H]2CC=CC(=O)O2)cc1,> 100,> 100,> 100,Non-Toxic,0,8.7,25.7,0,4,44,–,–,–,–,–
O=C1C=CC[C@H](/C=C/C2CCCCC2)O1,31,> 100,29,Toxic,56,79,98,-8,18,91,–,–,–,–,–
